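Cultured in 96-well plates, cells were exposed to test compound for 48 hours across five concentrations. Abbreviation: GI50, concentration required for 50% inhibition of growth.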 Activity calls are given as the source filed them. No stated cut-off is given here; in the data, active = GI50 up to about 1.1 µM and inactive = higher.
Key:
Assay in all cases: DTP human tumour cell line panel, 48 h
TK-10 = tested on: TK-10
K562 = tested on: K562
CCRF-CEM = tested on: CCRF-CEM
MOLT-4 = tested on: MOLT-4
NCI-H23 = tested on: NCI-H23
PC-3 = tested on: PC-3
A549 = tested on: A549
SN12C = tested on: SN12C
SW-620 = tested on: SW-620
NCI-H460 = tested on: NCI-H460
MDA-MB-435 = tested on: MDA-MB-435
SNB-75 = tested on: SNB-75
UO-31 = tested on: UO-31
UACC-62 = tested on: UACC-62
CAKI-1 = tested on: CAKI-1
SNB-19 = tested on: SNB-19
ACHN = tested on: ACHN
MCF7 = tested on: MCF7
SR = tested on: SR

SMILES	GI50 (TK-10)	GI50 (K562)	GI50 (CCRF-CEM)	GI50 (MOLT-4)	GI50 (NCI-H23)	GI50 (PC-3)	GI50 (A549)	GI50 (SN12C)	GI50 (SW-620)	GI50 (NCI-H460)	GI50 (MDA-MB-435)	GI50 (SNB-75)	GI50 (UO-31)	GI50 (UACC-62)	GI50 (CAKI-1)	GI50 (SNB-19)	GI50 (ACHN)	GI50 (MCF7)	GI50 (SR)
COC(=O)Cc1c([C@H]2[C@H](CC(=O)OC)c3ccccc3N2C(C)=O)[nH]c2ccccc12	> 100 µM (inactive)	50.8 µM (inactive)	67.5 µM (inactive)	54.8 µM (inactive)	50.9 µM (inactive)	80 µM (inactive)	97.7 µM (inactive)	> 100 µM (inactive)	> 100 µM (inactive)	96.8 µM (inactive)	> 100 µM (inactive)	> 100 µM (inactive)	39.9 µM (inactive)	> 100 µM (inactive)	> 100 µM (inactive)	> 100 µM (inactive)	> 100 µM (inactive)	–	–
CCCCNc1c(CN)cnc2cc(Cl)ccc12	15 µM (inactive)	13.9 µM (inactive)	4.7 µM (inactive)	17 µM (inactive)	19.3 µM (inactive)	16.8 µM (inactive)	20.5 µM (inactive)	18.4 µM (inactive)	16.3 µM (inactive)	13 µM (inactive)	15.6 µM (inactive)	19.8 µM (inactive)	–	15.6 µM (inactive)	21.1 µM (inactive)	22.9 µM (inactive)	22.6 µM (inactive)	14.5 µM (inactive)	–
O=C(Cc1ccccc1)NN1C(=O)/C(=C\c2ccccc2)S/C1=N\c1ccccc1	> 100 µM (inactive)	–	–	> 100 µM (inactive)	> 100 µM (inactive)	–	> 100 µM (inactive)	> 100 µM (inactive)	> 100 µM (inactive)	> 100 µM (inactive)	> 100 µM (inactive)	> 100 µM (inactive)	> 100 µM (inactive)	> 100 µM (inactive)	–	> 100 µM (inactive)	> 100 µM (inactive)	> 100 µM (inactive)	–
Cc1cc(C)c(/N=N/c2c(O)c(S(=O)(=O)O)cc3cc(S(=O)(=O)O)ccc23)cc1C	> 100 µM (inactive)	> 100 µM (inactive)	> 100 µM (inactive)	> 100 µM (inactive)	> 100 µM (inactive)	> 100 µM (inactive)	> 100 µM (inactive)	> 100 µM (inactive)	> 100 µM (inactive)	–	> 100 µM (inactive)	> 100 µM (inactive)	> 100 µM (inactive)	> 100 µM (inactive)	> 100 µM (inactive)	> 100 µM (inactive)	> 100 µM (inactive)	–	–
Cc1ccc2[nH]c3[nH]c(=O)[nH]c(=O)c3c2c1	> 100 µM (inactive)	> 100 µM (inactive)	> 100 µM (inactive)	> 100 µM (inactive)	> 100 µM (inactive)	–	> 100 µM (inactive)	> 100 µM (inactive)	> 100 µM (inactive)	–	> 100 µM (inactive)	> 100 µM (inactive)	> 100 µM (inactive)	> 100 µM (inactive)	> 100 µM (inactive)	> 100 µM (inactive)	> 100 µM (inactive)	> 100 µM (inactive)	> 10 µM (inactive)
O=C(OC1C(Oc2ccccc2COC(=O)C2(O)C=CCCC2=O)OC(CO)C(O)C1O)c1ccccc1 (centres undefined)	31.3 µM (inactive)	34.4 µM (inactive)	–	6.03 µM (inactive)	26.4 µM (inactive)	28.4 µM (inactive)	7.05 µM (inactive)	25.9 µM (inactive)	24.7 µM (inactive)	22.3 µM (inactive)	27.5 µM (inactive)	7.13 µM (inactive)	26.5 µM (inactive)	40.2 µM (inactive)	4.11 µM (inactive)	40.9 µM (inactive)	34.2 µM (inactive)	–	19.4 µM (inactive)
O=C(Cn1c2c(c3ccccc31)CCCC2)NC1CCCCC1	> 100 µM (inactive)	> 100 µM (inactive)	> 100 µM (inactive)	> 10 µM (inactive)	> 100 µM (inactive)	88.7 µM (inactive)	> 100 µM (inactive)	> 100 µM (inactive)	> 100 µM (inactive)	> 100 µM (inactive)	> 100 µM (inactive)	–	> 100 µM (inactive)	56.4 µM (inactive)	> 100 µM (inactive)	> 100 µM (inactive)	> 100 µM (inactive)	> 100 µM (inactive)	–
NC1=NN(c2ccccc2)C(=O)C1/C(=N\NC(=O)c1cc2ccccc2cc1O)C(=O)Nc1ccc(Cl)c(Cl)c1 (centres undefined)	55.6 µM (inactive)	28.4 µM (inactive)	10.1 µM (inactive)	22.9 µM (inactive)	28.9 µM (inactive)	–	42.8 µM (inactive)	35.6 µM (inactive)	33.1 µM (inactive)	31.3 µM (inactive)	–	31.2 µM (inactive)	17.6 µM (inactive)	17.7 µM (inactive)	54.5 µM (inactive)	25.4 µM (inactive)	28.3 µM (inactive)	–	0.0612 µM (active)
CCOc1cn(C2CC(O)C(CO)O2)c(=O)[nH]c1=O (centres undefined)	> 100 µM (inactive)	–	> 100 µM (inactive)	> 100 µM (inactive)	> 100 µM (inactive)	> 100 µM (inactive)	> 100 µM (inactive)	> 100 µM (inactive)	> 100 µM (inactive)	> 100 µM (inactive)	> 100 µM (inactive)	> 100 µM (inactive)	> 100 µM (inactive)	> 100 µM (inactive)	> 100 µM (inactive)	> 100 µM (inactive)	> 100 µM (inactive)	45.9 µM (inactive)	–
NC(=O)C(=CN1C(=O)CC(=O)NC1=S)C(N)=O	> 100 µM (inactive)	–	–	> 100 µM (inactive)	> 100 µM (inactive)	–	> 100 µM (inactive)	> 100 µM (inactive)	> 100 µM (inactive)	> 100 µM (inactive)	> 100 µM (inactive)	> 100 µM (inactive)	> 100 µM (inactive)	–	> 100 µM (inactive)	> 100 µM (inactive)	> 100 µM (inactive)	> 100 µM (inactive)	–
CC(C)(C)C(=O)CC(=O)C(F)(F)C(F)(F)C(F)(F)F	18.2 µM (inactive)	15.8 µM (inactive)	16.3 µM (inactive)	17.9 µM (inactive)	12.6 µM (inactive)	13.6 µM (inactive)	22.3 µM (inactive)	13.9 µM (inactive)	18.8 µM (inactive)	12.9 µM (inactive)	15.5 µM (inactive)	16.6 µM (inactive)	20 µM (inactive)	15.3 µM (inactive)	14.7 µM (inactive)	20 µM (inactive)	15.3 µM (inactive)	–	5.06 µM (inactive)
COc1cc(Nc2c(C#N)[n+]([O-])c3ccccc3[n+]2[O-])cc(OC)c1OC	> 100 µM (inactive)	39.1 µM (inactive)	27 µM (inactive)	42 µM (inactive)	19.6 µM (inactive)	33.3 µM (inactive)	43.8 µM (inactive)	35.8 µM (inactive)	29.9 µM (inactive)	35.2 µM (inactive)	37.4 µM (inactive)	> 100 µM (inactive)	> 100 µM (inactive)	–	38.1 µM (inactive)	28.6 µM (inactive)	56.8 µM (inactive)	24.2 µM (inactive)	–
C/C=C\C(CC(=O)NCCC1CN(C(=O)OCc2ccccc2)c2ccccc21)CC(=O)OC (centres undefined)	> 100 µM (inactive)	> 100 µM (inactive)	> 100 µM (inactive)	> 100 µM (inactive)	> 100 µM (inactive)	99.8 µM (inactive)	> 100 µM (inactive)	–	> 100 µM (inactive)	86.5 µM (inactive)	> 100 µM (inactive)	> 100 µM (inactive)	> 100 µM (inactive)	> 100 µM (inactive)	> 100 µM (inactive)	> 100 µM (inactive)	> 100 µM (inactive)	> 100 µM (inactive)	–
Cc1cc(-c2[nH]c(C(=O)O)cc2I)on1	> 100 µM (inactive)	> 100 µM (inactive)	–	> 100 µM (inactive)	51.2 µM (inactive)	> 100 µM (inactive)	56.6 µM (inactive)	–	> 100 µM (inactive)	> 100 µM (inactive)	> 100 µM (inactive)	24.8 µM (inactive)	40.5 µM (inactive)	53.8 µM (inactive)	93.1 µM (inactive)	31 µM (inactive)	91.4 µM (inactive)	> 100 µM (inactive)	–
O=C1c2c(ccc3c2CCC3)CC12Cc1ccccc1C2	21.5 µM (inactive)	20.5 µM (inactive)	11.4 µM (inactive)	5.04 µM (inactive)	20.8 µM (inactive)	25.1 µM (inactive)	22.3 µM (inactive)	19.5 µM (inactive)	8.41 µM (inactive)	7.03 µM (inactive)	13.2 µM (inactive)	21.5 µM (inactive)	5.27 µM (inactive)	–	5.94 µM (inactive)	33.7 µM (inactive)	13.7 µM (inactive)	27.5 µM (inactive)	–
CC(C)N(C(=O)C12C3C4C1C1C2C3C41C(=O)O)C(C)C (centres undefined)	> 100 µM (inactive)	> 100 µM (inactive)	> 100 µM (inactive)	> 100 µM (inactive)	> 100 µM (inactive)	–	> 100 µM (inactive)	> 100 µM (inactive)	> 100 µM (inactive)	> 100 µM (inactive)	–	> 100 µM (inactive)	> 100 µM (inactive)	> 100 µM (inactive)	> 100 µM (inactive)	> 100 µM (inactive)	> 100 µM (inactive)	–	–
Cc1cc2c(c(=O)o1)C1=S(SC(c3ccccc3)=C1)S2 (centres undefined)	32.2 µM (inactive)	38.4 µM (inactive)	> 100 µM (inactive)	> 100 µM (inactive)	78.9 µM (inactive)	24.4 µM (inactive)	33.7 µM (inactive)	67.3 µM (inactive)	> 100 µM (inactive)	37.2 µM (inactive)	–	26 µM (inactive)	26.5 µM (inactive)	39.2 µM (inactive)	–	28.2 µM (inactive)	34.7 µM (inactive)	29.6 µM (inactive)	18.3 µM (inactive)
